Results on one compound are retold here after ChEMBL document CHEMBL4371080, “Multiple weak intercalation as a strategy for the inhibition of polymerases” (Bioorg Med Chem Lett, 2019).

Molecules are shown by their SMILES. Where a SMILES comes first, the peptide text is derived from it. Bridges are numbered along the chain shown (N, C = ends). [ ]: non-standard residue; d: D form. The star is where a group is joined. ξ: configuration not given here. Quinoxaline2carbonyl = O=C(c1cnc2ccccc2n1)*; ξDap = NCC(N)C(=O)O

For test [1], the target named is T1, Human immunodeficiency virus type 1 reverse transcriptase (Human immunodeficiency virus 1, UniProt Q72547). Kind of test: Inhibition of HIV1 reverse transcriptase assessed as reduction in [3H]dTTP incorporation using poly(rA)/oligo(dT) as template/primer after 30 mins in presence of calf thymus DNA by scintillation counting method.
The target in test [2] is T1, Human immunodeficiency virus type 1 reverse transcriptase. Kind of test: Inhibition of HIV1 reverse transcriptase assessed as reduction in [3H]dTTP incorporation using poly(rA)/oligo(dT) as template/primer after 30 mins by scintillation counting method.
Test [3] shares this target. As to the kind of experiment: Inhibition of HIV1 reverse transcriptase assessed as reduction in [3H]dTTP incorporation using poly(rA)/oligo(dT) as template/primer after 30 mins in presence of Triton-X-100 by scintillation counting method.
The target of test [4] is Human immunodeficiency virus type 1 reverse transcriptase (Human immunodeficiency virus 1) (UniProt Q72547). As to the kind of experiment: Inhibition of HIV1 reverse transcriptase assessed as reduction in [3H]dTTP incorporation by measuring proportional residual activity ratio at 20 uM using poly(rA)/oligo(dT) as template/primer after 30 mins by scintillation counting method relative to control.

Test [5] shares this target. As to the kind of experiment: Ratio of IC50 for inhibition of HIV1 reverse transcriptase in presence of calf thymus DNA to IC50 for inhibition of HIV1 reverse transcriptase in absence of calf thymus DNA.
Test [6] addresses T2, DNA polymerase alpha catalytic subunit (Homo sapiens) (UniProt P09884).
T2 sequence (whole entry): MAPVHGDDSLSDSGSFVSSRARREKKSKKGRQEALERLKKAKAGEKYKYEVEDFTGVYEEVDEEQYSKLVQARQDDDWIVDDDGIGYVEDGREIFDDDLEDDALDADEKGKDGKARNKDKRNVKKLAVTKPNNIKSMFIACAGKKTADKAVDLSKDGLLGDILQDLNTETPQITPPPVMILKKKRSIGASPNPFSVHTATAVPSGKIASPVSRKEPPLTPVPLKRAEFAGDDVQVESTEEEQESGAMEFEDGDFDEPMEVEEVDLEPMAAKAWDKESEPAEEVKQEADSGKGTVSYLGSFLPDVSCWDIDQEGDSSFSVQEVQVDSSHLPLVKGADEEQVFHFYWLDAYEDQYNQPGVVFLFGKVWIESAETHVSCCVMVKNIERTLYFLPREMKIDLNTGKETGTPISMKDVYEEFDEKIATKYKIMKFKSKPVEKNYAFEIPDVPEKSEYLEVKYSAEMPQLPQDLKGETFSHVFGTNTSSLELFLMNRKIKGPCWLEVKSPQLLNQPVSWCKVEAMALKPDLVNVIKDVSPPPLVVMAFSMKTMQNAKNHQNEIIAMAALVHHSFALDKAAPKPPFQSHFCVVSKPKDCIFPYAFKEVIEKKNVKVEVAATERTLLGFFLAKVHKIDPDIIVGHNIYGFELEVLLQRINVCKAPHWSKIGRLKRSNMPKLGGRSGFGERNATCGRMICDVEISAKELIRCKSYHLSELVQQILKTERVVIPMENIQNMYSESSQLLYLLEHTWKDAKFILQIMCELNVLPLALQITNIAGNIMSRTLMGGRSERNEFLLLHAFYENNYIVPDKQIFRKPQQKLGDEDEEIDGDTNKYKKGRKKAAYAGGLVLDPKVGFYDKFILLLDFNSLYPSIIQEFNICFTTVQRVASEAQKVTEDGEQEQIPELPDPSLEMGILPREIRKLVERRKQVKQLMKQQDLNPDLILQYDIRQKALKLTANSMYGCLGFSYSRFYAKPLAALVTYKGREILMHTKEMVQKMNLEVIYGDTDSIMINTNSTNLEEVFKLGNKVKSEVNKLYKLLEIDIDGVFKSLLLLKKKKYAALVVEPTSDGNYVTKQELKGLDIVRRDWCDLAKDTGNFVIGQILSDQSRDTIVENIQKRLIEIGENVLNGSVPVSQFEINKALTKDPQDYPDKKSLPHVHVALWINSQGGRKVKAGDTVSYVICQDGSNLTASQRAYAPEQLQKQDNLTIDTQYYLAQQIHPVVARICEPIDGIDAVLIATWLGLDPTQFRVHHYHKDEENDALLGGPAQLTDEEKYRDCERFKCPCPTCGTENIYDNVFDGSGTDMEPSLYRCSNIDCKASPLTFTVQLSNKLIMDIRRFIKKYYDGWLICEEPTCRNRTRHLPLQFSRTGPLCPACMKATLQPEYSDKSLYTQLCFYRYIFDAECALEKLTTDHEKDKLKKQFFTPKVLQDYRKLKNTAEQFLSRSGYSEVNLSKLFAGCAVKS
As to the kind of experiment: Inhibition of human DNA polymerase-alpha assessed as reduction in [3H]dTTP incorporation in to activated calf thymus DNA substrate at 600 uM after 30 mins by scintillation counting method relative to control.

A word on the IC50: it is the concentration at which inhibition is half-maximal. As a reminder, the inhibition is the relative decrease from the control value, in per cent. On to `NCC1NC(=O)C[C@@H](C(N)=O)NC(=O)C(CNC(=O)c2cnc3ccccc3n2)NC(=O)CNC(=O)CNC(=O)CNC(=O)C(CNC(=O)c2cnc3ccccc3n2)NC1=O` (stereo partly drawn) ([ξDap][ξDap](Quinoxaline2carbonyl)GGG[ξDap](Quinoxaline2carbonyl)D-NH2; lactam N-7), for which the results for the 50% inhibitory concentration (IC50) in test [1], in test [2] and in test [3] were 21.8 µM, 6.5 µM and 7 µM, respectively. Moreover, the Ratio in test [4] came out at 0.09. Also, in test [5], the Ratio IC50 came out at 3.5. Moreover, in test [6], the inhibition is 89%.
